Calls of active or inactive are those of the source. The rule behind the calls is not given here.
molecular target: X-box-binding protein 1 (Homo sapiens) (UniProt P17861); assay: inhibitors of XBP1 reporter signal, dose response, counter-screen, cell-based (AID 504313); settings: XBP1 reporter cell assay, percent of control;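 note: CHO cells carrying an XBP1 reporter stimulated with tunicamycin; potency is for inhibition of the tunicamycin-induced reporter signal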

Compound | IC50
Cc1ccc(S(=O)(=O)CC#CCOC(=O)c2ccc([N+](=O)[O-])cc2)cc1 | inactive
CCOC(=O)C(NC(=O)Nc1cccc(C)n1)(OCC(F)(F)F)C(F)(F)F (centres undefined) | inactive
CC[n+]1c(/C=C2\Sc3ccccc3N2C)ccc2cccc(C)c21 | 0.24 µM
COc1cc(C)nc(N2CCCC(C(=O)Nc3cccc(Cl)c3C)C2)n1 (centres undefined) | > 10 µM (inactive)
O=C(O)c1cccc(COc2ccccc2Cl)c1 | 0.91 µM
Cc1cccc(NC(=S)NC(NC(=O)OCc2ccccc2)C(Cl)(Cl)Cl)c1 (centres undefined) | > 10 µM (inactive)
CCOC(=O)C1=C(O)/C(=C/c2ccc(CNC(=O)C(=O)Nc3ccc(C)cc3)o2)N=C1C | > 10 µM (inactive)
C=C1C(=O)O[C@@H]2C[C@@H](C)[C@@H]3C=CC(=O)[C@@]3(C)[C@@H](O)[C@H]12 | 2.43 µM
CCCCCCCCCCCCCCCC[n+]1ccc(/C=N/O)cc1 | inactive
COc1ccc2c(C)nc(Nc3nc(C)c(C)c(=O)[nH]3)nc2c1 | < 0.16 µM
CCCNC(=O)c1nnsc1S(=O)c1ccc(Cl)cc1 (centres undefined) | inactive
NC(=O)c1ccc(C(F)(F)F)n(Cc2c(Cl)cccc2Cl)c1=O | inactive
CCCCCc1ccc(OCCOCCn2c[n+](C)c3ccccc32)c(CCCCC)c1 | inactive
Cn1cnc([N+](=O)[O-])c1S(=O)(=O)c1cccc(Cl)c1 | inactive
C=C(C)COc1ccc(-c2[nH]ncc2Oc2ccccc2OCC)c(O)c1 | inactive
Cc1cccc(/C=C/C(=O)c2cc(Br)ccc(=O)c2O)c1 | > 10 µM (inactive)
C=C(C)COc1ccc(-c2n[nH]c(C)c2-c2ccc(Br)cc2)c(O)c1 | inactive
O=C(Nc1nccs1)c1cc2c(s1)CCCCC2 | > 10 µM (inactive)
Oc1cccc(-c2nc3c4c(ncn3n2)-c2ccccc2CC42CCCC2)c1 | > 10 µM (inactive)
O=S(=O)(C/C(=C/CO)S(=O)(=O)c1ccccc1)c1ccccc1 | 3.44 µM
CCOC(=O)c1cc([N+](=O)[O-])c([N+](=O)[O-])cc1NC(C)=O | inactive
Cc1ccc(NC(=O)c2ccc(Nc3c([N+](=O)[O-])cc([N+](=O)[O-])cc3[N+](=O)[O-])cc2)cc1 | inactive
CCCCNS(=O)(=O)c1ccc2nc(-c3cccnc3)cc(C(=O)NC3CCCC3)c2c1 | > 10 µM (inactive)
Cc1ccc(OCC(=O)N2CCN(c3nnc(-c4ccc(C)cc4)c4ccccc34)CC2)cc1 | inactive
COC(=O)c1ccc2c(c1)C(C)(C)C(/C=C/c1ccc(O)cc1)=[N+]2C | > 10 µM (inactive)

Compound | IC50
O=Cc1s/c(=N\S(=O)(=O)c2ccccc2)n(CCCCl)c1Cl | inactive
O=C1NC(=S)S/C1=C\C=C\c1ccc([N+](=O)[O-])o1 | inactive
CN(C)c1ccc(C(CNS(=O)(=O)c2ccc(F)c(F)c2)c2c[nH]c3ccccc23)cc1 (centres undefined) | inactive
Cc1ccc(-n2ncc(Br)c(Br)c2=O)cc1 | inactive
CCCCCCNC(=O)CC(c1ccccc1)c1cc(Br)ccc1O (centres undefined) | inactive
O=S(=O)(Nc1cccc2c1CCCC2)c1cccc(C(F)(F)F)c1 | inactive
COC(=O)c1ccc2c(=O)n(CCCCCC(=O)N3CCN(c4ccccc4)CC3)c(=O)[nH]c2c1 | > 10 µM (inactive)
O=C(Nc1ccc(Br)c(C(F)(F)F)c1)c1ccc(C(F)(F)F)cc1 | 5.44 µM
CCC(C)NC(=O)c1c(N)n(CC2CCCO2)c2nc3ccccc3nc12 (centres undefined) | > 10 µM (inactive)
CCOc1ccc(-c2cc(CCCC(=O)NCc3ccc(C)cc3)no2)cc1 | 0.29 µM
C[C@H](NC(=O)c1nc[nH]c1C(=O)N[C@@H](Cc1ccccc1)C(=O)OC(C)(C)C)C(=O)OC(C)(C)C | inactive
COc1ccc(N=CC2=C(O)c3ccccc3C2=O)c(OC)c1 | inactive
CC1CCc2cc(F)ccc2N1C(=O)CSc1nnc2c(n1)[nH]c1ccc(F)cc12 (centres undefined) | > 10 µM (inactive)
CCc1ccc(/C=c2\s/c(=C\C(=O)C(C)(C)C)[nH]c2=O)cc1 | inactive
Oc1ccc(Cl)cc1-c1cc(-c2ccccc2)n[nH]1 | > 10 µM (inactive)
O=C1C(C2=NC(c3ccccn3)C3C(=O)N(c4ccc(Cl)cc4Cl)C(=O)C23)=C(O)c2ccccc21 (centres undefined) | inactive
CCOC(=O)c1cnc(-n2nc(C)cc2C)nc1Nc1ccc(O)cc1 | 1.26 µM
COc1ccc(-c2[nH]ncc2N=Nc2cc(C)cc(C)c2)cc1 | > 10 µM (inactive)
C/C(=N\N=C1\NC(=O)C(CC(=O)Nc2ccc(C)c(Cl)c2)S1)C(C)(C)C (centres undefined) | 4.96 µM
O=C1C=CC(=O)N1CCCCCCN1C(=O)C=CC1=O | inactive
CCOc1cc(/C=C2/C(=O)ON=C2C)ccc1OCc1ccccc1F | > 10 µM (inactive)
CCN(CC)CCn1c(SCC(=O)Nc2ccc(F)cc2)nc2c(sc3ccccc32)c1=O | > 10 µM (inactive)
O=[N+]([O-])c1c(NCCCO)cc(Sc2nc3ccccc3s2)c2nonc12 | inactive
CC(C)Oc1ccc(CNC(=S)N/N=C/c2ccc([N+](=O)[O-])cc2)cc1 | > 10 µM (inactive)
O=C1c2ccc3c4c(ccc(c24)C(=O)N1c1cccc(O)c1)C(=O)N(c1cccc(O)c1)C3=O | inactive

Compound | IC50
CCOC(=O)Cc1csc(NC(=O)NC2(C(F)(F)F)Oc3cc(Cl)c(Cl)cc3O2)n1 | inactive
O/N=C(\c1ccc(Cl)cc1Cl)c1ncc(C(F)(F)F)cc1Cl | 6.07 µM
COC(=O)C(O)(c1ccc(NC(=S)NC(=O)c2ccc(Cl)cc2Cl)c(C)c1)C(F)(F)F (centres undefined) | > 10 µM (inactive)
Cc1cc(C2=NNC(=NC3CC3)SC2)c(C)n1-c1ccccc1F | < 0.16 µM (inactive)
COc1ccc(NC(=O)/C(Cl)=C(/Cl)S(=O)(=O)Cc2ccc(C)cc2)cn1 | inactive
O=C(CCl)N(Cc1cccc([N+](=O)[O-])c1)c1cccc(Cl)c1 | inactive
Cc1cc(C)n(-c2nc(Nc3ccccc3C(F)(F)F)nc(-n3nc(C)cc3C)n2)n1 | inactive
CC1=NNC(=O)/C1=C\c1cn(-c2ccccc2)nc1-c1ccc(F)cc1 | inactive
COc1ccc(C(=O)/C=C/C(=O)N(CC(=O)NCCC(C)C)Cc2cccs2)c(O)c1 | inactive
O=S1(=O)C=C(Sc2nc3cc(Cl)ccc3o2)c2ccccc21 | 4.42 µM
CC(C)C[C@H](NC(=O)OC(C)(C)C)c1nnc(SCC(=O)Nc2ccc(Br)cc2)o1 | 4.92 µM
O=c1c(Br)c(Br)cnn1-c1ccccc1 | inactive
O=C(OCn1ncc(Br)c(Br)c1=O)c1ccccc1Cl | 4.81 µM
Cc1ccn2cc(-c3cc4ccccc4oc3=O)nc2c1 | inactive
Cc1ccc(-n2c(Cl)c(Cl)nc(Cl)c2=O)cc1 | 2.32 µM
CCOC(=O)c1c(-n2c(C)cc(C=C3C(=O)NC(=S)NC3=O)c2C)sc2c1CCCC2 | inactive
O=C(CSc1ncnc2[nH]ncc12)Nc1nc(-c2ccc(F)c(F)c2)cs1 | > 10 µM (inactive)
Cn1c(=O)[nH]c(=O)c2c1nc([N+](=O)[O-])n2Cc1ccccc1 | inactive
Cc1cccc(C)c1N1CCN(c2ccc3nnc(C(F)(F)F)n3n2)CC1 | > 10 µM (inactive)
CC(C)(C)c1ccc(OCC(=O)N/N=C/C2CC=CCC2)cc1 (centres undefined) | inactive
NC(=O)CC(NC(=O)Cc1cccc2ccccc12)c1ccc(NCc2ccccc2)c([N+](=O)[O-])c1 (centres undefined) | > 10 µM (inactive)
Cc1cccc(C)c1NC(=O)COc1ccccc1C(=O)Nc1ccc(Br)cn1 | > 10 µM (inactive)
COc1ccc(Cn2c(SCc3ccccc3C)nc3cc(OC)c(OC)cc3c2=N)cc1 | > 10 µM (inactive)
CCOC(=O)c1c(N)sc(C(O)(C(F)(F)F)C(F)(F)F)c1-c1ccc(Cl)cc1 | inactive
CC(C)CC(NC(=O)c1ccc(Cl)cc1)C(=O)OCC(=O)c1ccc2c(c1)NC(=O)CO2 (centres undefined) | inactive

Compound | IC50
CCCCc1c(C)nn(-c2nnc3c4ccccc4n(CC)c3n2)c1C | > 10 µM (inactive)
Cc1ccc(COc2ccc(Br)cc2/C=N/O)cc1 | > 10 µM (inactive)
CCCCCCCCCCCCCCCC[n+]1cccc2ccccc21 | < 0.16 µM (inactive)
CCCCCCCCCCCCCCCC[n+]1cccc(C(=O)N(CC)CC)c1 | inactive
Nc1c(S(=O)(=O)c2ccccc2)c2nc3ccccc3nc2n1/N=C/c1cccc(O)c1 | > 10 µM (inactive)
Cc1nc(SCC(=O)Nc2ccc(F)cc2)c(C#N)c(C)c1CC(=O)c1ccc(Br)cc1 | > 10 µM (inactive)
Oc1ccc(Oc2ccc3c(C(F)(F)F)cc(C(F)(F)F)nc3n2)cc1 | > 10 µM (inactive)
CC(C)NC(=O)c1ccccc1NC(=O)/C=C/c1cccc([N+](=O)[O-])c1 | > 10 µM (inactive)
Cc1nn(CCC#N)c2nc(-c3ccccc3)cc(C(F)(F)F)c12 | inactive
Cc1sc(NC(=O)c2cccc([N+](=O)[O-])c2)c(C(N)=O)c1-c1ccc(C(C)(C)C)cc1 | 4.11 µM
COC(=O)Oc1ccc(/C=N/NC(=O)CSCc2ccccc2Br)cc1OC | > 10 µM (inactive)
Cc1ccc(N(c2ncnc(N)c2[N+](=O)[O-])C2CCCCC2)cc1 | > 10 µM (inactive)
CCCCCCCCCS(=O)(=O)N/N=C/c1cccc([N+](=O)[O-])c1 | inactive
CCn1cc([N+](=O)[O-])c(C(=O)N2N=C(c3ccc(Cl)c(Cl)c3)CC2c2ccccc2O)n1 (centres undefined) | > 10 µM (inactive)
C=CCn1c(O)c(C(CC)=Nc2ccc(N(CC)CC)cc2)c(=O)[nH]c1=O | inactive
COc1ccccc1-c1cc(C(F)(F)F)nc(S(=O)(=O)CCCC(=O)Nc2cccnc2Cl)n1 | > 10 µM (inactive)
CCCCC(CC)Cn1c(N)c(C#N)c2nc3ccccc3nc21 (centres undefined) | inactive
CCc1ccc(C(=O)/C=C/c2ccc([N+](=O)[O-])o2)cc1 | > 10 µM (inactive)
Cc1ccc(N=Cc2cc3c(cc2O)OC(N)=C(C#N)C3c2ccccc2)cc1 (centres undefined) | > 10 µM (inactive)
O=C1C(=O)c2ccc(-c3ccccc3)cc2-c2ccccc21 | 3.26 µM
CC(C)(C)c1ccc(O)c(N=Cc2cc(Br)ccc2O)c1 | inactive
CCOC(=O)c1cnc(-n2nc(C)cc2C)nc1NC1CCCCC1 | inactive
CNC(=O)c1nnsc1S(=O)(=O)c1ccc(Cl)cc1 | inactive
CCCN1C=CC(=C2C(=O)c3ccccc3C2=O)C=C1 | inactive
